Values joined by “and” are separate entries in the source; they are usually repeats but may differ in a detail not shown here. Equal entries are not always repeated. One block for each molecule: values may come before it.
Legend:
[1] = system: HT-29 cells; experiment: MTS cell viability test on HT-29 cells; type: cell-based, Human; details: HT-29, 24 h incubation at 37° C., 0-200 μM
Method: (§1) Human lung alveolar carcinoma A549 cells, provided by Prof. L. Migliore, University of Pisa, were grown in Ham's F12 medium supplemented with 10% Fetal Bovine Serum (FBS), 1 mM Gln, and antibiotics. Human colorectal adenocarcinoma HT-29 cells, provided by Prof. P. Petronini, University of Parma, were grown in DMEM High (glucose 4.5 g/1) supplemented with 10% FBS, 2 mM Gln and antibiotics. Cells were incubated at 37° C. at 5% CO2; after thawing, all cells were used for less than ten passages.
(§2) 3.5×10^3 B6KPC3 and A549 cells and 7.5×10^3 HT-29 cells were seeded into 96-well plates. […] After 24 h, cell viability was evaluated through MTS Cell Proliferation Colorimetric Assay Kit (Novus Biologicals, Abingdon, UK). […] In preliminary experiments the time of exposure to MTS (1 h for HT-29 and 3 h for A549 cells) was determined according to the metabolism of each cell type. Absorbance was measured at 492 nm with a microplate reader (EnSpire® Multimode Plate Reader, Perkin Elmer, Boston, Mass., USA).
(§3) Cell viability (CV) percentage was evaluated through the following formula: CV (%)=(Absorbance(treated wells))/(Absorbance(control wells))×100 with Absorbance (control wells) considered the absorbance of untreated cells incubated in medium without drugs. […]
(§4) Oxaliplatin, DACHPt, and Blank nanoparticles are thus used as controls. Viability was then evaluated with the MTS assay (see Material and Methods). […]

[2] = system: B6KPC3 cells; experiment: MTS cell viability test on B6KPC3 cells; type: cell-based; details: B6KPC3, 24 h incubation at 37° C., 0-200 μM
Method: 3.5×10^3 B6KPC3 and A549 cells and 7.5×10^3 HT-29 cells were seeded into 96-well plates. […] After 24 h, cell viability was evaluated through MTS Cell Proliferation Colorimetric Assay Kit (Novus Biologicals, Abingdon, UK). Briefly, medium was removed, and 100 μL of MTS solution diluted 1:10 in serum-free medium were added in each well. In preliminary experiments the time of exposure to MTS (1 h for HT-29 and 3 h for A549 cells) was determined according to the metabolism of each cell type. Absorbance was measured at 492 nm with a microplate reader (EnSpire® Multimode Plate Reader, Perkin Elmer, Boston, Mass., USA).
Cell viability (CV) percentage was evaluated through the following formula: CV (%)=(Absorbance(treated wells))/(Absorbance(control wells))×100 with Absorbance (control wells) considered the absorbance of untreated cells incubated in medium without drugs. G.3 Results for Viability Studies on HT-29, A549 and B6KPC3 Cells: MTS Test
Oxaliplatin, DACHPt, and Blank nanoparticles are thus used as controls. Viability was then evaluated with the MTS assay (see Material and Methods). Data were expressed as % of control (untreated cells). Data are means±SD of two experiments with 3 determinations each.

[3] = system: A549 cells; experiment: MTS cell viability test on A549 cells; type: cell-based, Human; details: A549, 24 h incubation at 37° C., 0-200 μM
Method: as §1, §2, §3, §4

[4] = system: multicellular HT116 spheroids; experiment: Multicellular tumor spheroid (MCTS) volume follow-up; type: cell-based
Description: Multi cellular tumor spheroids (MCTS) were formed according to a previous published method [Virgone-Carlotta A, Lemasson M, Mertani H C, et al. In-depth phenotypic characterization of multicellular tumor spheroids: Effects of 5-Fluorouracil. PLOS ONE. 2017; 12(11):e0188100. doi: 10.1371/journal.pone.0188100]. Briefly, MCTS were formed using HTC-116 cell line in Ultra Low Attachment (ULA) 96 wells Round-Bottom plate (Greiner bio-one) to avoid cell-substrate attachment. The cells were trypsinized and were counted using a Malassez grid in order to obtain 2,400 cells per milliliter. This concentration of cells (i.e., 480 cells per well in a volume of 200 μL) was chosen in order to obtain a single spheroid per well, with a spheroid diameter at the end of the experimentation not exceeding 500 μm. The plate was centrifuged for 5 minutes at 1,200 g at room temperature to initiate the formation of spheroids. The plate was placed in the incubator under agitation at 37° C. and 5% CO2 during the whole experiment. At the end of the first day after seeding, 100 μL of culture medium was added to ensure proper 3D growth. […] The treatment was renewed during 3 days. Results are shown on FIGS. 4 to 6.
Blank NP were also used to assess nonspecific toxicity that could arise from the system. MCTS were monitored at day 0, 1, 2, 3, 4, and 7 day post treatment. Eight spheroids (n=8) were probed at each concentration (5, 25 and 50 μM). A ring of detaching cells appeared spontaneously after one day of treatment. The spheroids were transferred into new well plates to eliminate mechanically this uncohesive peripheral cell layer and to renew the drug and culture medium. Therefore, the reduction in volume monitored during treatment arose from a loss of viability as well as from a loss of cohesiveness.
We performed edge detection using a sobel threshold for each spheroid using the Image J software. The resulting binary images were fitted to an ellipse of major (LM) and minor (Lm) axes using the ImageJ “Analyse Particles” plugins. From this, a mean diameter was calculated, D=(LM+Lm)/2. The volume V was then determined assuming that the spheroids are spherical V=πD3/6. Results are shown on FIG. 7.
The volume of MCTS was evaluated from phase contrast microscopy images as a readout of cytotoxic effect. The data reported in FIGS. 4-6 represent normalized MCTS volume for different treatments with respect to the control volume (MCTS not treated). Three different drug concentrations were tested: 5, 25 and 50 μM.

[5] = clinical studies, end of a 2-hr infusion; cited from earlier work
[6] = Pharmacokinetics after IV bolus injection, two-compartment analysis of plasma Pt; details: mice, 35 μg Pt/mice
Method: At specific time points, 15, 30 min, 1, 1.5, 3, 5, 8 and 12 h post dose, 200 μl of blood was taken and separated from plasma. Pt content was detected using ICP/MS.
A first-order, two-compartment model with bolus administration, expressed in terms of CL and V was applied to fit the data, using 1/yhat^2 as weighting function.
Based on the profile obtained (FIGS. 3A and 3B), the data were analyzed using a two-compartmental model.

IC50 [1]: 39 µM
Molecule: NC1CCCCC1N.[Pt+2] (stereo not shown) [DACHPt, di-aqua(1,2-diaminocyclohexane)platinum(II)]

Molecule: (R,R)-1,2-diaminocyclohexane(ethanedioato-O,O)platinum [Oxaliplatin]
IC50 [1]: 74 µM
IC50 [2]: 23 µM
IC50 [3]: 11 µM
IC50 ([3]; listed as oxaliplatin reference solution): 12 µM
size reduction (%) of spheroids compared to control spheroids at the same day ([4]; 5 μM, Day 0): −1.21%
size reduction (%) of spheroids compared to control spheroids at the same day ([4]; 5 μM, Day 1): 4.52%
size reduction (%) of spheroids compared to control spheroids at the same day ([4]; 5 μM, Day 2): 15.86%
size reduction (%) of spheroids compared to control spheroids at the same day ([4]; 5 μM, Day 3): 24.88%
size reduction (%) of spheroids compared to control spheroids at the same day ([4]; 5 μM, Day 4): 28.73%
size reduction (%) of spheroids compared to control spheroids at the same day ([4]; 25 μM, Day 0): 0.59%
size reduction (%) of spheroids compared to control spheroids at the same day ([4]; 25 μM, Day 1): 16.06%
size reduction (%) of spheroids compared to control spheroids at the same day ([4]; 25 μM, Day 2): 29.27%
size reduction (%) of spheroids compared to control spheroids at the same day ([4]; 25 μM, Day 3): 40.23%
size reduction (%) of spheroids compared to control spheroids at the same day ([4]; 25 μM, Day 4): 45.93%
size reduction (%) of spheroids compared to control spheroids at the same day ([4]; 25 μM, Day 7): 52.04%
size reduction (%) of spheroids compared to control spheroids at the same day ([4]; 50 μM, Day 0): 0.62%
size reduction (%) of spheroids compared to control spheroids at the same day ([4]; 50 μM, Day 1): 16.78%
size reduction (%) of spheroids compared to control spheroids at the same day ([4]; 50 μM, Day 2): 32.53%
size reduction (%) of spheroids compared to control spheroids at the same day ([4]; 50 μM, Day 3): 44.17%
size reduction (%) of spheroids compared to control spheroids at the same day ([4]; 50 μM, Day 4): 48.93%
size reduction (%) of spheroids compared to control spheroids at the same day ([4]; 50 μM, Day 7): 71.67%
appearance of treated spheroids on photographs ([4]; 50 μM, FIG. 7): few cells are still present and formed aggregates
administered platinum present in the systemic circulation [5]: 15%
AUMC [6]: 65.1 ± 23.8 hr*hr*mg/L
K12 (rate constant central to peripheral compartment) [6]: 4.14 ± 0.72 h⁻¹
K21 (rate constant peripheral to central compartment) [6]: 0.398 ± 0.054 h⁻¹
Q [6]: 0.060 ± 0.008 L/h
Vc [6]: 0.014 ± 0.004 L
Vp [6]: 0.15 ± 0.02 L
Vss [6]: 0.165 L
K21 (rate constant peripheral to central compartment) ([6]; listed as oxaliplatin): 0.398 h⁻¹
K12 (rate constant central to peripheral compartment) ([6]; listed as oxaliplatin solution): 4.14 h⁻¹
Vc ([6]; listed as oxaliplatin solution): 0.014 L
Vp ([6]; listed as oxaliplatin solution): 0.150 L
AUC ([6]; plasma): 3760 ng·h/mL
Alpha_HL (distribution half-life) ([6]; plasma): 8.1 min
CL ([6]; plasma clearance): 0.010 L/h
Beta_HL (elimination half-life) ([6]; plasma, listed as oxaliplatin solution): 13.6 h and 13 h
Cmax ([6]; time 0 hr): 2480 ng/mL

Source: patent US12144896B2, “Drug delivery system” (INSERM (INSTITUT NATIONAL DE LA SANTÉ ET DE LA RECHERCHE …, priority 2018, dated 2024)
